Reference: US5356920A, “Imidazol-2-yl derivatives of substituted bicyclic compounds” (priority 1990, dated 1994)

Legend:
[1] = target: T1, acyl CoA:cholesterol acyltransferase (ACAT-EC 2.3.1.26) (Oryctolagus cuniculus, UniProt A0A5F9CPP4); assay: ACAT inhibition in microsomes from atherosclerotic rabbit thoracic aorta (intima media); format: biochemical; details: microsomes from atherosclerotic rabbit thoracic aortas; limits p = 0.95
T1 construct: microsomal preparations from atherosclerotic rabbit thoracic aorta (intima media); from tissue; host or cells: microsomes from atherosclerotic rabbit thoracic aorta (intima media)
T1 sequence (A0A5F9CPP4 1-555): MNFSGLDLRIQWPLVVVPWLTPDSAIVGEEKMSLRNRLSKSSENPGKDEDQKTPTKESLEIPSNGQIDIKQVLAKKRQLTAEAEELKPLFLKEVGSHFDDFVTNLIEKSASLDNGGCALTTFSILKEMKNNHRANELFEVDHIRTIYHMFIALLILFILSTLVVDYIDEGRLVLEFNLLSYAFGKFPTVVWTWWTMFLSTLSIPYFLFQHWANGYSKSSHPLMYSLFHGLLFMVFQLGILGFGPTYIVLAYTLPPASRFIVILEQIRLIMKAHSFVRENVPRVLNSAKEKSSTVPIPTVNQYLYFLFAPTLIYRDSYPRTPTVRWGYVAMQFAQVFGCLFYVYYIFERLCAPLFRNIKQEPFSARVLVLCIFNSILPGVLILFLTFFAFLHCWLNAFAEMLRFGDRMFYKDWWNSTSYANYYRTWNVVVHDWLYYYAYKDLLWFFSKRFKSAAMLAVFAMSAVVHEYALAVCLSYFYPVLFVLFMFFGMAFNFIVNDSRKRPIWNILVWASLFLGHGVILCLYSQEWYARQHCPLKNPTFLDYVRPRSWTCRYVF

[2] = orientative acute toxicity (LD50), single oral administration, assessed on the seventh day, mice; details: mouse, in vivo, nine hours food deprived
Protocol: The toxicity of the compounds of the invention is negligible, therefore they can be safely used in therapy. Nine hours food deprived mice and rats were treated orally with single administration of increasing doses, then housed and normally fed. The orientative acute toxicity (LD50) was assessed on the seventh day after the treatment, for instance a LD50 greater than 800 mg/kg was found in mice for the compound coded as FCE 27116.

[3] = target: T1, acyl CoA:cholesterol acyltransferase (ACAT-EC 2.3.1.26); details: Hudson H., Day A., Atherosclerosis (1982) 45, 109; cited from earlier work

Row | IC50 [1] | SMILES | LD50 at 168 h [2] | inhibitory activity in vitro (rabbit arterial microsomes) [3]
1 | 1060 nM | CCCC1Oc2ccc(OCCCC(C)(C)C(=O)OCC)cc2C=C1c1nccn1C (racemic) [FCE 25184, ethyl (+-)-5-[2-propyl-3-(1-methyl-1H-imidazol-2-yl)-2H-benzopyran-6-yl]oxy-2,2-dimethylpentanoate, reference compound] |  | 
2 | 85.1 nM | CC(C)c1cccc(C(C)C)c1NC(=O)C(C)(C)CCCOc1ccc2c(c1)C=C(c1nccn1C)C(CCc1ccccc1)O2 (racemic) [FCE 26734, (+-)-5-[2-(2-phenylethyl)-3-(1-methyl-1H-imidazol-2-yl)-2H-1-benzopyran-6-yl]oxy-2,2-dimethyl-N-(2,6-diisopropylphenyl)pentanamide] |  | 
3 | 66.8 nM | CCOC(=O)C1(CCCOc2ccc3c(c2)C=C(c2nccn2C)C(CCc2ccccc2)O3)CCCC1 (racemic) [FCE 27051, ethyl (+-)-1-[3-(2-(2-phenylethyl)-3-(1-methyl-1H-imidazol-2-yl)-2H-1-benzopyran-6-yl)oxypropyl]cyclopentane-1-carboxylate] |  | 
4 | 82.2 nM | CC(C)c1cccc(C(C)C)c1NC(=O)C(C)(C)CCCOc1ccc2c(c1)C=C(c1nccn1C)C(CCc1ccc(F)cc1F)O2 (racemic) [FCE 27113, (+-)-5-[2-(2-(2,4-difluorophenyl)ethyl)-3-(1-methyl-1H-imidazol-2-yl)-2H-1-benzopyran-6-yl)oxy-2,2-dimethyl-N-(2,6-diisopropylphenyl)pentanamide] |  | 
5 |  | CC(C)(Oc1ccc(CCNC(=O)c2ccc(Cl)cc2)cc1)C(=O)O [Bezafibrate] |  | inhibitory activity in vitro (rabbit arterial microsomes) has been already demonstrated

Row | SMILES | IC50 [1] | LD50 at 168 h [2] | inhibitory activity in vitro (rabbit arterial microsomes) [3]
6 | Cn1ccnc1C1=Cc2cc(OCCCC(C)(C)C(=O)NC3CCCCC3)ccc2OC1CCc1ccc(F)cc1 (racemic) [FCE 27116, (+-)-5-[2-(2-(4-fluorophenyl)ethyl)-3-(1-methyl-1H-imidazol-2-yl)-2H-1-benzopyran-6-yl]oxy-2,2-dimethyl-N-cyclohexylpentanamide] | 39.9 nM | > 800 mg/kg | 
